Structures are written as SMILES.

This experiment deals with beta-TC6 cells. Put plainly: Insulin HTRF assay (relative activity Ar) in beta-TC6 cells. The class given is cell-based, mouse. The settings on record: Mus musculus, Beta-TC6, 4 h, insulin HTRF, supernatant of beta-TC6 cells, incubation with test compound at 37°C for 2, 3, 4h; read-out: Ar (relative activity). A digest of the protocol: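 beta-TC6 cells (15k/well, seeded 24 or 48 h) washed, then exposed to compound in induction buffer (0.5% DMSO final) for 2, 3 or 4 h at 37°C.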
In the case of `CN(C)c1cccc(Nc2nccc3c2cc(-c2ccsc2)n3C)c1` [Compound 277, N1,N1-dimethyl-N3-[1-methyl-2-(3-thienyl)pyrrolo[3,2-c]pyridin-4-yl]benzene-1,3-diamine], the Emax was 30 to 50%.
As to `CNc1nc2cnc(Nc3ccc4c(c3)OCO4)cc2n1Cc1ccco1` [Compound 524, N6-(1,3-benzodioxol-5-yl)-1-(2-furylmethyl)-N2-methyl-imidazo[4,5-c]pyridine-2,6-diamine], the Emax lay within 50 to 100%.
As for `CN1CCN(c2ccc(Nc3nccc4[nH]c(-c5ccsc5)cc34)cc2)CC1` [Compound 257, N-[4-(4-methylpiperazin-1-yl)phenyl]-2-(3-thienyl)-1H-pyrrolo[3,2-c]pyridin-4-amine], the Emax fell in the range of 30 to 50%.
The value for `CC(=O)c1cccc(-c2cc3c(cn2)nc(NCc2ccccc2F)n3C)c1` [Compound 747, 1-[3-[2-[(2-fluorophenyl)methylamino]-1-methyl-imidazo[4,5-c]pyridin-6-yl]phenyl]ethanone] was 0 to 30%; that for `CN(C)C(=O)c1ccc(-c2cc3cnc(Nc4cccnc4)cc3n2C)cc1` [Compound 47, N,N-dimethyl-4-[1-methyl-6-(3-pyridylamino)pyrrolo[3,2-c]pyridin-2-yl]benzamide] was 50 to 100%.
Turning to `COc1ccc(-c2nc3c(Nc4cccc(O)c4)nccc3[nH]2)cc1` [Compound 397, 3-[[2-(4-methoxyphenyl)-1H-imidazo[4,5-c]pyridin-4-yl]amino]phenol], the Emax was in the range of 50 to 100%.
`CC(C)Oc1cccc(Nc2cc3[nH]c(-c4ccccn4)cc3cn2)c1` [Compound 73, N-(3-isopropoxyphenyl)-2-(2-pyridyl)-1H-pyrrolo[3,2-c]pyridin-6-amine]: the Emax lay within 50 to 100%.
As for `c1cncc(-c2cc3cnc(N4CCOCC4)cc3[nH]2)c1` [Compound 77, 4-[2-(3-pyridyl)-1H-pyrrolo[3,2-c]pyridin-6-yl]morpholine], the Emax fell in the range of 50 to 100%.
As for `Oc1cccc(Nc2nccc3[nH]c(-c4ccsc4)cc23)c1` [Compound 264, 3-[[2-(3-thienyl)-1H-pyrrolo[3,2-c]pyridin-4-yl]amino]phenol], the Emax is 30 to 50%.
The value for `COc1ccc(OC)c(CCNc2nc3cnc(-c4cccc(C(N)=O)c4)cc3n2C)c1` [Compound 822, 3-[2-[2-(2,5-dimethoxyphenyl)ethylamino]-1-methyl-imidazo[4,5-c]pyridin-6-yl]benzamide] was 0 to 30%.
The value for `CNc1nc2cnc(Nc3ccc(OC)cc3)cc2n1Cc1ccco1` [Compound 523, 1-(2-furylmethyl)-N6-(4-methoxyphenyl)-N2-methyl-imidazo[4,5-c]pyridine-2,6-diamine] was 50 to 100%; that for `c1ccc(-c2nc3cnccc3[nH]2)nc1` [Compound 742, 2-(2-pyridyl)-1H-imidazo[4,5-c]pyridine] was 30 to 50%; that for `CNc1nc2cnc(Nc3cccc(N(C)C)c3)cc2n1Cc1ccco1` [Compound 522, N6-[3-(dimethylamino)phenyl]-1-(2-furylmethyl)-N2-methyl-imidazo[4,5-c]pyridine-2,6-diamine] was 30 to 50%.
To `CNc1nc2cnc(Nc3cccc(C(F)(F)F)c3)cc2n1Cc1cccnc1` [Compound 765, N2-methyl-1-(3-pyridylmethyl)-N6-[3-(trifluoromethyl)phenyl]imidazo[4,5-c]pyridine-2,6-diamine] belongs 0 to 30%; to `COc1ccc(-c2nc3c(Nc4ccccc4)nccc3[nH]2)cc1` [Compound 393, 2-(4-methoxyphenyl)-N-phenyl-1H-imidazo[4,5-c]pyridin-4-amine], 30 to 50%.
In the case of `CNc1nc2cnc(Nc3cc(OC)c(OC)c(OC)c3)cc2n1C` [Compound 609, N2,1-dimethyl-N6-(3,4,5-trimethoxyphenyl)imidazo[4,5-c]pyridine-2,6-diamine], the Emax fell in the range of 50 to 100%.
To `COc1cc(Nc2nc3cnc(-c4cccnc4)cc3n2C)cc(OC)c1OC` [Compound 589, 1-methyl-6-(3-pyridyl)-N-(3,4,5-trimethoxyphenyl)imidazo[4,5-c]pyridin-2-amine] belongs 50 to 100%.
With `FC(F)(F)c1cccc(Nc2cc3[nH]c(-c4ccccn4)cc3cn2)c1` [Compound 66, 2-(2-pyridyl)-N-[3-(trifluoromethyl)phenyl]-1H-pyrrolo[3,2-c]pyridin-6-amine], the Emax fell in the range of 30 to 50%.
The value for `CS(=O)(=O)c1ccc(Nc2nccc3[nH]c(-c4cccc(C(F)(F)F)c4)cc23)cc1` [Compound 197, N-(4-methylsulfonylphenyl)-2-[3-(trifluoromethyl)phenyl]-1H-pyrrolo[3,2-c]pyridin-4-amine] was 30 to 50%; that for `COc1ccc(Nc2cc3c(cn2)nc(NCc2ccc(OC)c(OC)c2)n3C)cc1` [Compound 606, N2-[(3,4-dimethoxyphenyl)methyl]-N6-(4-methoxyphenyl)-1-methyl-imidazo[4,5-c]pyridine-2,6-diamine] was 50 to 100%; that for `Cn1c(NCc2ccccc2)nc2cnc(-c3ccccc3)cc21` [Compound 836, N-benzyl-1-methyl-6-phenyl-imidazo[4,5-c]pyridin-2-amine] was 30 to 50%.
Turning to `CNc1nc2cnc(-c3ccc(C(N)=O)cc3)cc2n1-c1ccccc1` [Compound 786, 4-[2-(methylamino)-1-phenyl-imidazo[4,5-c]pyridin-6-yl]benzamide], the Emax fell in the range of 0 to 30%.
To `COc1ccc(-c2cc3c(cn2)nc(NCc2cccc(C)c2)n3C)cc1` [Compound 807, 6-(4-methoxyphenyl)-1-methyl-N-(m-tolylmethyl)imidazo[4,5-c]pyridin-2-amine] belongs 30 to 50%.
The value for `COc1ccc(Nc2nccc3c2cc(-c2ccccc2)n3C)cc1OC` [Compound 326, N-(3,4-dimethoxyphenyl)-1-methyl-2-phenyl-pyrrolo[3,2-c]pyridin-4-amine] was 30 to 50%; that for `CNc1nc2cnc(Nc3ccc4c(c3)OCO4)cc2n1CCOC` [Compound 497, N6-(1,3-benzodioxol-5-yl)-1-(2-methoxyethyl)-N2-methyl-imidazo[4,5-c]pyridine-2,6-diamine] was 50 to 100%.
The value for `COc1cccc(-c2cc3c(Nc4ccccc4)nccc3[nH]2)c1` [Compound 309, 2-(3-methoxyphenyl)-N-phenyl-1H-pyrrolo[3,2-c]pyridin-4-amine] was 30 to 50%; that for `COc1ccc(OC)c(CCNc2nc3cnc(-c4cccc(O)c4)cc3n2C)c1` [Compound 820, 3-[2-[2-(2,5-dimethoxyphenyl)ethylamino]-1-methyl-imidazo[4,5-c]pyridin-6-yl]phenol] was 30 to 50%.
Turning to `CC(=O)N(C)c1cccc(-c2cc3cnc(Nc4ccc(C(N)=O)cc4)cc3n2C)c1` [Compound 159, 4-[[2-[3-[acetyl(methyl)amino]phenyl]-1-methyl-pyrrolo[3,2-c]pyridin-6-yl]amino]benzamide], the Emax was 50 to 100%.
For the molecule `CN(C)c1cccc(Nc2nccc3[nH]c(-c4ccccc4)nc23)c1` [Compound 331, N1,N1-dimethyl-N3-(2-phenyl-1H-imidazo[4,5-c]pyridin-4-yl)benzene-1,3-diamine], the Emax lay within 50 to 100%.
The value for `COc1cc(Nc2cc3c(cn2)cc(-c2cccc(N(C)C(C)=O)c2)n3C)cc(OC)c1OC` [Compound 158, N-methyl-N-[3-[1-methyl-6-(3,4,5-trimethoxyanilino)pyrrolo[3,2-c]pyridin-2-yl]phenyl]acetamide] was 50 to 100%; that for `CC(=O)N(C)c1cccc(-c2cc3cnc(Nc4ccc5c(c4)OCO5)cc3n2C)c1` [Compound 169, N-[3-[6-(1,3-benzodioxol-5-ylamino)-1-methyl-pyrrolo[3,2-c]pyridin-2-yl]phenyl]-N-methyl-acetamide] was 30 to 50%.
The value for `CNc1nc2cnc(Nc3ccc4c(c3)OCCO4)cc2n1Cc1ccccc1` [Compound 528, 1-benzyl-N6-(2,3-dihydro-1,4-benzodioxin-6-yl)-N2-methyl-imidazo[4,5-c]pyridine-2,6-diamine] was 50 to 100%; that for `COc1cc(-n2cnc3cnc(Nc4cccc(C(F)(F)F)c4)cc32)cc(OC)c1OC` [Compound 690, N-[3-(trifluoromethyl)phenyl]-1-(3,4,5-trimethoxyphenyl)imidazo[4,5-c]pyridin-6-amine] was greater than 100%.
To `COc1cccc(-c2nc3c(NC4CCC(N)CC4)nccc3[nH]2)c1F` (stereo not shown) [Compound 476, N4-[2-(2-fluoro-3-methoxy-phenyl)-1H-imidazo[4,5-c]pyridin-4-yl]cyclohexane-1,4-diamine] belongs 0 to 30%.
In the case of `CN(C)C(=O)c1ccc(-c2cc3cnc(N(C)c4ccccc4)cc3n2C)cc1` [Compound 52, N,N-dimethyl-4-[1-methyl-6-(N-methylanilino)pyrrolo[3,2-c]pyridin-2-yl]benzamide], the Emax fell in the range of 30 to 50%.
To `Clc1cccc(-c2cc3c(Nc4cccnc4)nccc3[nH]2)c1` [Compound 315, 2-(3-chlorophenyl)-N-(3-pyridyl)-1H-pyrrolo[3,2-c]pyridin-4-amine] belongs 30 to 50%; to `COc1ccc(Nc2cc3c(cn2)nc(-c2ccccc2)n3C)cn1` [Compound 704, N-(6-methoxy-3-pyridyl)-1-methyl-2-phenyl-imidazo[4,5-c]pyridin-6-amine], 30 to 50%; to `CC(C)c1cccc(Nc2nccc3c2cc(-c2ccc(C(=O)N(C)C)cc2)n3C)c1` [Compound 224, 4-[4-(3-isopropylanilino)-1-methyl-pyrrolo[3,2-c]pyridin-2-yl]-N,N-dimethyl-benzamide], 0 to 30%.
To `CN(C)C(=O)c1ccc(-c2cc3c(Nc4cccc(O)c4)nccc3n2C)cc1` [Compound 221, 4-[4-(3-hydroxyanilino)-1-methyl-pyrrolo[3,2-c]pyridin-2-yl]-N,N-dimethyl-benzamide] belongs 30 to 50%; to `Cn1c(-c2ccccc2)nc2cnc(Nc3ccc4c(c3)OCO4)cc21` [Compound 706, N-(1,3-benzodioxol-5-yl)-1-methyl-2-phenyl-imidazo[4,5-c]pyridin-6-amine], 50 to 100%.

Source of the values: EP2818472A1, “Imidazo[4,5-c]pyridine and pyrrolo[3,2-c]pyridine compounds as G-protein-coupled receptor kinase 5 (GRK5) modulators” (Max-Planck-Gesellschaft zur Förderung der Wissenschaften …, priority 2013, dated 2014).
